According to patent US9707229B2, “Compositions and methods for treating an infection” (CMPD LICENSING, LLC, priority 2015, dated 2017):

Legend:
Format in all cases: cell-based
Bacteroides fragilis = experiment: Expected efficacy of antibiotic agents; details: Gram: anaer
Clostridium difficile = experiment: Expected efficacy of antibiotic agents; details: Gram: anaer
Clostridium perfringens = details: expected efficacy; Gram: anaer
Chlamydia pneumoniae = experiment: Expected efficacy of antibiotic agents; details: Gram: n/a
Chlamydia psittaci = details: expected efficacy; Gram: n/a
Chlamydia trachomatis = experiment: Expected efficacy of antibiotic agents; details: Gram: n/a
Mycoplasma pneumoniae = experiment: Expected efficacy of antibiotic agents; details: Gram: n/a
Acinetobacter baumannii = experiment: Expected efficacy of antibiotic agents; details: Gram: neg
[1] = system: Acinetobacter calcoaceticus; experiment: Expected efficacy of antibiotic agents; details: Gram: neg
Acinetobacter lwoffii = experiment: Expected efficacy of antibiotic agents; details: Gram: neg
Bordetella pertussis = experiment: Expected efficacy of antibiotic agents; details: Gram: neg
Campylobacter jejuni = experiment: Expected efficacy of antibiotic agents; details: Gram: neg
Citrobacter diversus = experiment: Expected efficacy of antibiotic agents; details: Gram: neg
Citrobacter freundii = experiment: Expected efficacy of antibiotic agents; details: Gram: neg
Enterobacter aerogenes = experiment: Expected efficacy of antibiotic agents; details: Gram: neg
Enterobacter cloacae = experiment: Expected efficacy of antibiotic agents; details: Gram: neg
Enterobacter sakazakii = experiment: Expected efficacy of antibiotic agents; details: Gram: neg
Escherichia coli = experiment: Expected efficacy of antibiotic agents; details: Gram: neg
Francisella tularensis = details: expected efficacy; Gram: neg
Haemophilus ducreyi = experiment: Expected efficacy of antibiotic agents; details: Gram: neg
Haemophilus influenzae = experiment: Expected efficacy of antibiotic agents; details: Gram: neg
[2] = system: Haemophilus parainfluenzae; experiment: Expected efficacy of antibiotic agents; details: Gram: neg
[3] = system: Klebsiella (Calymmatobacterium) granulomatis; experiment: Expected efficacy of antibiotic agents; details: Gram: neg
Klebsiella oxytoca = experiment: Expected efficacy of antibiotic agents; details: Gram: neg
Klebsiella pneumoniae = experiment: Expected efficacy of antibiotic agents; details: Gram: neg
Legionella pneumophila = details: expected efficacy; Gram: neg
Moraxella catarrhalis = experiment: Expected efficacy of antibiotic agents; details: Gram: neg
Morganella morganii = experiment: Expected efficacy of antibiotic agents; details: Gram: neg
Neisseria gonorrhoeae = experiment: Expected efficacy of antibiotic agents; details: Gram: neg
Neisseria meningitidis = experiment: Expected efficacy of antibiotic agents; details: Gram: neg
Proteus mirabilis = experiment: Expected efficacy of antibiotic agents; details: Gram: neg
Proteus vulgaris = experiment: Expected efficacy of antibiotic agents; details: Gram: neg
Providencia rettgeri = experiment: Expected efficacy of antibiotic agents; details: Gram: neg
Providencia stuartii = experiment: Expected efficacy of antibiotic agents; details: Gram: neg
Pseudomonas aeruginosa = experiment: Expected efficacy of antibiotic agents; details: Gram: neg
Rickettsiae = details: expected efficacy; Gram: neg
Salmonella typhi = experiment: Expected efficacy of antibiotic agents; details: Gram: neg
Serratia marcescens = experiment: Expected efficacy of antibiotic agents; details: Gram: neg
Shigella boydii = experiment: Expected efficacy of antibiotic agents; details: Gram: neg
Shigella dysenteriae = experiment: Expected efficacy of antibiotic agents; details: Gram: neg
Shigella flexneri = experiment: Expected efficacy of antibiotic agents; details: Gram: neg
Shigella sonnei = experiment: Expected efficacy of antibiotic agents; details: Gram: neg
Vibrio cholerae = experiment: Expected efficacy of antibiotic agents; details: Gram: neg
Yersinia pestis = details: expected efficacy; Gram: neg
Corynebacterium jeikeium = experiment: Expected efficacy of antibiotic agents; details: Gram: pos
[4] = system: Corynebacterium urealyticum; experiment: Expected efficacy of antibiotic agents; details: Gram: pos
Diphtheroids = experiment: Expected efficacy of antibiotic agents; details: Gram: pos
Enterococcus faecalis = experiment: Expected efficacy of antibiotic agents; details: Gram: pos
Enterococcus faecium = experiment: Expected efficacy of antibiotic agents; details: Gram: pos
[5] = system: Methicillin resistant staph aureus (MRSA); experiment: Expected efficacy of antibiotic agents; details: Gram: pos
Peptostreptococcus = experiment: Expected efficacy of antibiotic agents; details: Gram: pos
[6] = system: Staphylococcus aureus (MSSA); experiment: Expected efficacy of antibiotic agents; details: Gram: pos
[7] = system: Staphylococcus epidermidis; experiment: Expected efficacy of antibiotic agents; details: Gram: pos
Streptococcus agalactiae = experiment: Expected efficacy of antibiotic agents; details: Gram: pos
Streptococcus pneumoniae = experiment: Expected efficacy of antibiotic agents; details: Gram: pos
Streptococcus pyogenes = experiment: Expected efficacy of antibiotic agents; details: Gram: pos
[8] = system: Viridans group streptococci; experiment: Expected efficacy of antibiotic agents; details: Gram: pos
Brucella species = details: expected efficacy; Gram: neg
Pseudomonas fluorescens = experiment: Expected efficacy of antibiotic agents; details: Gram: neg

With `CO/N=C(\C(=O)N[C@@H]1C(=O)N2C(C(=O)O)=C(CSc3nc(=O)c(=O)[nH]n3C)CS[C@H]12)c1csc(N)n1` [Ceftriaxone] the “efficacy against Bacteroides fragilis” value (Bacteroides fragilis) was “yes”, the “efficacy against Clostridium difficile” value (Clostridium difficile) was “no” and the “efficacy against Clostridium perfringens” value (Clostridium perfringens) was “yes”. For the same compound, the “efficacy against Chlamydia pneumoniae” value (Chlamydia pneumoniae) was “no”, the “efficacy against Chlamydia psittaci” value (Chlamydia psittaci) was “no” and the “efficacy against Chlamydia trachomatis” value (Chlamydia trachomatis) was “no”. The “efficacy against Mycoplasma pneumoniae” value (Mycoplasma pneumoniae) was “no”, the “efficacy against Acinetobacter baumannii” value (Acinetobacter baumannii) was “no” and the “efficacy against Acinetobacter calcoaceticus” value [1] was “no”. For the same compound, the “efficacy against Acinetobacter lwoffii” value (Acinetobacter lwoffii) was “no”, the “efficacy against Bordetella pertussis” value (Bordetella pertussis) was “no” and the “efficacy against Campylobacter jejuni” value (Campylobacter jejuni) was “no”. For the same compound, the “efficacy against Citrobacter diversus” value (Citrobacter diversus) was “yes”, the “efficacy against Citrobacter freundii” value (Citrobacter freundii) was “yes” and the “efficacy against Enterobacter aerogenes” value (Enterobacter aerogenes) was “yes”. The “efficacy against Enterobacter cloacae” value (Enterobacter cloacae) was “yes”, the “efficacy against Enterobacter sakazakii” value (Enterobacter sakazakii) was “yes” and the “efficacy against Escherichia coli” value (Escherichia coli) was “yes”. For the same compound, the “efficacy against Francisella tularensis” value (Francisella tularensis) was “no”, the “efficacy against Haemophilus ducreyi” value (Haemophilus ducreyi) was “yes” and the “efficacy against Haemophilus influenzae” value (Haemophilus influenzae) was “yes”. The “efficacy against Haemophilus parainfluenzae” value [2] was “yes”, the “efficacy against Klebsiella (Calymmatobacterium) granulomatis” value [3] was “yes” and the “efficacy against Klebsiella oxytoca” value (Klebsiella oxytoca) was “yes”. The “efficacy against Klebsiella pneumoniae” value (Klebsiella pneumoniae) was “yes”, the “efficacy against Legionella pneumophila” value (Legionella pneumophila) was “no” and the “efficacy against Moraxella catarrhalis” value (Moraxella catarrhalis) was “yes”. For the same compound, the “efficacy against Morganella morganii” value (Morganella morganii) was “yes”, the “efficacy against Neisseria gonorrhoeae” value (Neisseria gonorrhoeae) was “yes” and the “efficacy against Neisseria meningitidis” value (Neisseria meningitidis) was “yes”. For the same compound, the “efficacy against Proteus mirabilis” value (Proteus mirabilis) was “yes”, the “efficacy against Proteus vulgaris” value (Proteus vulgaris) was “yes” and the “efficacy against Providencia rettgeri” value (Providencia rettgeri) was “yes”. For the same compound, the “efficacy against Providencia stuartii” value (Providencia stuartii) was “yes”, the “efficacy against Pseudomonas aeruginosa” value (Pseudomonas aeruginosa) was “no” and the “efficacy against Rickettsiae” value (Rickettsiae) was “no”. For the same compound, the “efficacy against Salmonella typhi” value (Salmonella typhi) was “yes”, the “efficacy against Serratia marcescens” value (Serratia marcescens) was “yes” and the “efficacy against Shigella boydii” value (Shigella boydii) was “yes”. The “efficacy against Shigella dysenteriae” value (Shigella dysenteriae) was “yes”, the “efficacy against Shigella flexneri” value (Shigella flexneri) was “yes” and the “efficacy against Shigella sonnei” value (Shigella sonnei) was “yes”. The “efficacy against Vibrio cholerae” value (Vibrio cholerae) was “no”, the “efficacy against Yersinia pestis” value (Yersinia pestis) was “no” and the “efficacy against Corynebacterium jeikeium” value (Corynebacterium jeikeium) was “no”. For the same compound, the “efficacy against Corynebacterium urealyticum” value [4] was “no”, the “efficacy against Diphtheroids” value (Diphtheroids) was “no” and the “efficacy against Enterococcus faecalis” value (Enterococcus faecalis) was “no”. The “efficacy against Enterococcus faecium” value (Enterococcus faecium) was “no”, the “efficacy against Methicillin resistant staph aureus (MRSA)” value [5] was “no” and the “efficacy against Peptostreptococcus” value (Peptostreptococcus) was “yes”. For the same compound, the “efficacy against Staphylococcus aureus (MSSA)” value [6] was “yes”, the “efficacy against Staphylococcus epidermidis” value [7] was “yes” and the “efficacy against Streptococcus agalactiae” value (Streptococcus agalactiae) was “yes”. For the same compound, the “efficacy against Streptococcus pneumoniae” value (Streptococcus pneumoniae) was “yes”, the “efficacy against Streptococcus pyogenes” value (Streptococcus pyogenes) was “yes” and the “efficacy against Viridans group streptococci” value [8] was “yes”.

For Colistimethate, the “efficacy against Bacteroides fragilis” value (Bacteroides fragilis) was “no”, the “efficacy against Clostridium difficile” value (Clostridium difficile) was “no” and the “efficacy against Chlamydia pneumoniae” value (Chlamydia pneumoniae) was “no”. The “efficacy against Chlamydia psittaci” value (Chlamydia psittaci) was “no”, the “efficacy against Chlamydia trachomatis” value (Chlamydia trachomatis) was “no” and the “efficacy against Mycoplasma pneumoniae” value (Mycoplasma pneumoniae) was “no”. The “efficacy against Bordetella pertussis” value (Bordetella pertussis) was “no”, the “efficacy against Brucella species” value (Brucella species) was “no” and the “efficacy against Enterobacter aerogenes” value (Enterobacter aerogenes) was “yes”. The “efficacy against Enterobacter cloacae” value (Enterobacter cloacae) was “yes”, the “efficacy against Enterobacter sakazakii” value (Enterobacter sakazakii) was “yes” and the “efficacy against Escherichia coli” value (Escherichia coli) was “yes”. For the same compound, the “efficacy against Haemophilus parainfluenzae” value [2] was “no”, the “efficacy against Klebsiella (Calymmatobacterium) granulomatis” value [3] was “yes” and the “efficacy against Klebsiella oxytoca” value (Klebsiella oxytoca) was “yes”. The “efficacy against Klebsiella pneumoniae” value (Klebsiella pneumoniae) was “yes”, the “efficacy against Legionella pneumophila” value (Legionella pneumophila) was “no” and the “efficacy against Moraxella catarrhalis” value (Moraxella catarrhalis) was “no”. The “efficacy against Neisseria gonorrhoeae” value (Neisseria gonorrhoeae) was “no”, the “efficacy against Neisseria meningitidis” value (Neisseria meningitidis) was “no” and the “efficacy against Proteus mirabilis” value (Proteus mirabilis) was “no”. For the same compound, the “efficacy against Proteus vulgaris” value (Proteus vulgaris) was “no”, the “efficacy against Providencia rettgeri” value (Providencia rettgeri) was “no” and the “efficacy against Providencia stuartii” value (Providencia stuartii) was “no”. For the same compound, the “efficacy against Pseudomonas aeruginosa” value (Pseudomonas aeruginosa) was “yes”, the “efficacy against Pseudomonas fluorescens” value (Pseudomonas fluorescens) was “yes” and the “efficacy against Serratia marcescens” value (Serratia marcescens) was “no”. For the same compound, the “efficacy against Vibrio cholerae” value (Vibrio cholerae) was “no”, the “efficacy against Corynebacterium jeikeium” value (Corynebacterium jeikeium) was “no” and the “efficacy against Corynebacterium urealyticum” value [4] was “no”. The “efficacy against Diphtheroids” value (Diphtheroids) was “no”, the “efficacy against Enterococcus faecalis” value (Enterococcus faecalis) was “no” and the “efficacy against Enterococcus faecium” value (Enterococcus faecium) was “no”. The “efficacy against Methicillin resistant staph aureus (MRSA)” value [5] was “no”, the “efficacy against Peptostreptococcus” value (Peptostreptococcus) was “no” and the “efficacy against Staphylococcus aureus (MSSA)” value [6] was “no”. For the same compound, the “efficacy against Staphylococcus epidermidis” value [7] was “no”, the “efficacy against Streptococcus agalactiae” value (Streptococcus agalactiae) was “no” and the “efficacy against Streptococcus pneumoniae” value (Streptococcus pneumoniae) was “no”. The “efficacy against Streptococcus pyogenes” value (Streptococcus pyogenes) was “no” and the “efficacy against Viridans group streptococci” value [8] was “no”.
